Data as given in US20090247616A1, “USE OF BENZO-FUSED HETEROCYLE SULFAMIDE DERIVATIVES FOR THE TREATMENT OF ANXIETY” (priority 2008, published 2009).

What was measured:
Male Rj:NMRI mice = assay: Elevated Plus Maze, Mouse (EPM); type: in vivo; conditions: 16 mg/kg p.o. (positive control)
Description: Rodents avoid open spaces (in the case of the assay apparatus, the open arms of an elevated plus-maze). Compounds which have anti-anxiety activity increase exploratory activity of the rodents in the open arms of the elevated plus-maze. The EPM assay was run according to the procedure as described by Handley and Mithani (Naunyn. Schmied. Arch. Pharmacol., 327, 1-5, 1984).
Male Rj:NMRI mice, weighing 20-30 g (max. range per experiment=5 g) at the beginning of the experiments, were obtained from Elevage Janvier, 53940 Le Genest-Saint-Isle, France and used in the assay. The animals were delivered to the laboratory at least 5 days before the experiments during which time they were acclimatized to laboratory conditions. The mice were housed in groups of 10 in Macrolon cages (25×19×13 cm) on wood litter (Litalabo—SPPS, 95100 Argenteuil, France) with free access to food (Code 113—SAFE, 89290 Augy, France) and water until tested (or as indicated otherwise). The animal house was maintained under artificial lighting (12 hours) between 7:00 and 19:00 in a controlled ambient temperature of 21±3° C., and relative humidity between 30-80%.
The elevated plus-maze consisted of 4 arms of equal length and width (14×5 cm) arranged in the form of a plus sign (+). Two opposite arms were enclosed by 12 cm high walls (closed arms). The 2 other arms had no walls (open arms). The maze was raised 56 cm above the floor. A mouse was placed in the centre of the plus-maze and left to explore the maze for 5 minutes. The number of entries into the open and closed arms and the time spent in the open arms was recorded. Ten (10) mice were used for each study group. The test was performed blind.
(§1) Compound #8 was evaluated at 30 mg/kg, 60 mg/kg and 120 mg/kg doses, administered p.o. 60 minutes before the test, and compared with a vehicle control group. Compound #8 was homogenized and dispersed using a mortar and a pestle in 0.2% hydroxypropylmethylcellulose (HPMC) in distilled water, which served as the vehicle. As a positive control, Clobazam (16 mg/kg p.o.), was administered under the same experimental conditions. Clobazam as URBANYL® tablets (16 mg/kg p.o.) were dispersed in 0.2% hydroxypropylmethylcellulose (HPMC) in distilled water for administration. Each experiment therefore included 5 study groups of 10 mice each.
(§2) Data were analyzed by comparing groups treated with compound #8 with groups treated with vehicle control using unpaired Student's t tests.

mouse = assay: Four Plate Test, Mouse; type: in vivo; conditions: 32 mg/kg p.o. (positive control)
Description: The Four Plate assay was run according to the procedure as described by Aron et al (Neuropharmacology, 10, 459-469, 1971). In this assay, the rodent experiences an electric shock upon crossing from one plate to another. Anxiolytics (such as benzodiazepines) increase the number of punished crossings.
Animals were placed individually in a white plastic enclosure containing a floor consisting of 4 metal plates connected to an electric shock generator (Apelex: Type 011346). The mouse was left to explore freely for 15 seconds. Then, every time the mouse crossed from one plate to another, it received a weak electric shock (2.5 mA, 1.5 s). The number of punished crossings were counted during a 1 minute test. Ten (10) mice were used for each study group. The test was performed blind.
as §1, with “(32” for “(16”, “Clobazam as URBANYL® tablets (16 mg/kg p.o.) were dispersed in 0.2% hydroxypropylmethylcellulose (HPMC) in distilled water for administration. Each experiment therefore included 5 study groups of 10 mice each.” left out
as §2

[1] = same experimental conditions, 10 mice

SMILES	melting point [°C]	Closed Arms Number of Entries, Mean ± S.E.M. (Male Rj:NMRI mice; [1])	Open Arms Number of Entries, Mean ± S.E.M. (Male Rj:NMRI mice; [1])	Open Arms Time Spent (sec), Mean ± S.E.M. (Male Rj:NMRI mice; [1]) [s]	Closed Arms Number of Entries, % change (Male Rj:NMRI mice; change from vehicle control)	Open Arms Number of Entries, % change (Male Rj:NMRI mice; change from vehicle control)	Open Arms Time Spent, % change (Male Rj:NMRI mice; change from vehicle control)	Number of Punished Crossings, Mean ± S.E.M. (mouse; [1])	Number of Punished Crossings, % Change (mouse; change from vehicle control)
NS(=O)(=O)NCC1CCc2ccccc2O1 (stereo not drawn)	100 to 101								
CN1C(=O)CC(=O)N(c2ccccc2)c2cc(Cl)ccc21 [CLOBAZAM, Clobazam]		11.9 ± 1.5 (*)	11.7 ± 1.1 (***)	120.1 ± 13.1	+59%	+350%	+567%	9.9 ± 1.2 (***)	+154%
